Measurements taken from publication PMC13045254, “Dual Targeting of DNA and EGFR by ZYH005 Induces DNA Damage and Mitotic Catastrophe in Glioblastoma” (MedComm, 2026).

Target: T1, epidermal growth factor receptor (EGFR) (Homo sapiens, UniProt P00533)
T1 construct: recombinant EGFR kinase domain
Assay: SPR with recombinant kinase domain; supported by CETSA, DARTS and LiP-MS
Assay type: binding

T1 sequence (P00533 712-979 limits assumed): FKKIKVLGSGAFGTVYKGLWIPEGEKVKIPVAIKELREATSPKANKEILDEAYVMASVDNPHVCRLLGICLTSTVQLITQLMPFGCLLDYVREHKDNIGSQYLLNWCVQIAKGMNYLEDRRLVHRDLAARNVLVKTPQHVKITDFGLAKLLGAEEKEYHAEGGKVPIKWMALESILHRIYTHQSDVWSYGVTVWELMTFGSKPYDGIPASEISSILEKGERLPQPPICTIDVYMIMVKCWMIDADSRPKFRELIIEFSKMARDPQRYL

Which Kd does the source give for `COc1ccc(CCn2c(=O)c3cc4c(cc3c3ccccc32)OCO4)cc1` [Z5, ZYH005] here?
The Kd was 19.6 µM.
